Test systems include 786-0; ACHN; BT-549; CAKI-1; HCC 2998; HOP-62; HOP-92; Hs-578T; MDA-MB-435; OVCAR-8; PC-3; RXF 393; SF-268; SK-MEL-2; SK-OV-3; SN12C; SNB-75; SW-620; T47D; UACC-257.
Holding throughout (test): NCI anticancer screen, dose series, 48 h

Molecules are shown by their SMILES.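 Where inhibition never reached the appropriate level, the endpoint shown equals the highest concentration tested. Otherwise, values were interpolated linearly from a five-concentration, 48-hour dose response in 96-well plates. GI50 = concentration required for 50% inhibition of growth.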 Active and inactive are the calls of the source. Cut-off read from the data, not from the text of the source: active = GI50 up to about 1.1 µM and inactive = higher. Some results are limits rather than exact numbers.

Consider `O=C(O)c1nn(-c2ccc(Cl)cc2)c2c1C(=O)c1ccccc1C2=O`, for which the GI50 in the test with 786-0 was > 100 µM (inactive); in the test with ACHN it was > 100 µM (inactive); in the test on BT-549, > 100 µM (inactive); in the test on CAKI-1, > 100 µM (inactive); in the test with HCC 2998, 43.1 µM (inactive); in the test with HOP-62 it was > 100 µM (inactive). Besides, the GI50 with HOP-92 was > 100 µM (inactive); in the test with Hs-578T it was > 100 µM (inactive); with MDA-MB-435, > 100 µM (inactive); in the test with OVCAR-8, > 100 µM (inactive); with PC-3, > 100 µM (inactive); in the test with RXF 393, 17.5 µM (inactive). Moreover, the GI50 in the test with SF-268 is > 100 µM (inactive); in the test with SK-MEL-2, > 100 µM (inactive); in the test with SK-OV-3 it was > 100 µM (inactive); in the test with SN12C, > 100 µM (inactive); in the test on SNB-75, 22.8 µM (inactive); in the test with SW-620, > 100 µM (inactive). The GI50 in the test on T47D and with UACC-257 was > 100 µM (inactive) each time.

Consider `CN(C)CCC(=O)[C@@]1(O)CC[C@H]2[C@@H]3CC=C4C[C@@H](O)CC[C@]4(C)[C@H]3CC[C@@]21C`, for which the GI50 in the test with 786-0 was 3.68 µM (inactive); in the test with ACHN, 16.1 µM (inactive); in the test on BT-549, 17.9 µM (inactive); with CAKI-1, 17.5 µM (inactive); with HCC 2998, 21.3 µM (inactive); in the test with HOP-62 it was 14.2 µM (inactive). Further, the GI50 in the test on HOP-92 was 20.9 µM (inactive); in the test on Hs-578T, 20.7 µM (inactive); in the test with MDA-MB-435, 18.2 µM (inactive); in the test on OVCAR-8 it was 20.2 µM (inactive); with PC-3, 13.4 µM (inactive); in the test on RXF 393 it was 9.2 µM (inactive). In addition, the GI50 in the test with SF-268 was 16.9 µM (inactive); in the test on SK-MEL-2, 15.9 µM (inactive); in the test with SK-OV-3, 29.8 µM (inactive); in the test on SN12C it was 16.9 µM (inactive); in the test on SNB-75, 15.2 µM (inactive); in the test on SW-620, 17.9 µM (inactive). Also, the GI50 in the test with T47D was 4.11 µM (inactive); in the test with UACC-257, 13.3 µM (inactive).

For the compound `COc1ccc(-c2cc(-c3ccccc3)nc(/N=C\c3ccccc3)n2)c(O)c1`, the GI50 is > 100 µM (inactive) in the test with 786-0; 6.47 µM (inactive) in the test on ACHN; > 31.3 µM (inactive) in the test with BT-549; 3.02 µM (inactive) in the test with CAKI-1; > 100 µM (inactive) in the test on HCC 2998; > 57.7 µM (inactive) in the test on HOP-62. Besides, the GI50 with HOP-92 is > 100 µM (inactive); with Hs-578T, > 100 µM (inactive); with MDA-MB-435, 3.72 µM (inactive); in the test on OVCAR-8 it was > 70.1 µM (inactive); in the test with PC-3, 7 µM (inactive); in the test with RXF 393, > 100 µM (inactive). The GI50 in the test on SF-268 was > 93.5 µM (inactive); with SK-MEL-2, 6.52 µM (inactive); in the test on SK-OV-3, 7.52 µM (inactive); in the test on SN12C, > 29 µM (inactive); in the test on SNB-75 it was > 100 µM (inactive); in the test with SW-620, 8 µM (inactive). Also, the GI50 in the test with T47D is 5.62 µM (inactive); in the test on UACC-257, > 100 µM (inactive).

Take `CC(C)CC1NC(=O)CCC(NC(=O)C(Cc2ccc(O)cc2)NC(=O)OCc2ccccc2)C(=O)NC(Cc2ccccc2)C(=O)NC(Cc2ccccc2)NC1=O` (stereo not given): the GI50 in the test on 786-0, in the test on ACHN, in the test on BT-549, in the test on CAKI-1, in the test with HCC 2998 and in the test with HOP-62 was > 100 µM (inactive) in each case. For the same compound, the GI50 with HOP-92, in the test on Hs-578T, in the test on MDA-MB-435, with OVCAR-8, in the test on PC-3 and with RXF 393 was > 100 µM (inactive) each time. The GI50 is > 100 µM (inactive) with SF-268; > 100 µM (inactive) with SK-MEL-2; 0.578 µM (active) with SK-OV-3; > 100 µM (inactive) with SN12C; > 100 µM (inactive) in the test on SNB-75; > 100 µM (inactive) with SW-620. In addition, the GI50 in the test with T47D and with UACC-257 was > 100 µM (inactive) throughout.

The record behind these values is ChEMBL document CHEMBL1201862, “PubChem BioAssay data set” (2004).
